In general, IC50 refers to the concentration at which inhibition is half-maximal.

Values after ≈ are worked out from the molar mass of the structure shown. Like-named read-outs stand apart in the source and are kept apart here. Numbered stars: 1 amine (or outer) side, 2 acyl side, 3 side chain; on linkers, the order of the positions; unused ones are H or OH. Bridge positions count the residues as written; N and C are the ends. Peptide text beside a SMILES is read from it. * marks the point of attachment. C20 diacid = O=C(O)CCCCCCCCCCCCCCCCCCC(=O)*; γGlu = O=C(O)[C@H](CCC(=O)[*:2])N[*:1]

We go through three compounds from patent US9023789B2, “Amylin analogs and pharmaceutical compositions thereof” (Novo Nordisk A/S, priority 2012, dated 2015).

The target in one series is T1, rat calcitonin receptor (Rattus norvegicus, UniProt P32214).
T1 construct: expressed in transfected cells; host or cells: BHK tk'ts 13 (transient, FuGENE 6), membranes
T1 sequence (P32214 25-479 isoform P32214-2 limits assumed): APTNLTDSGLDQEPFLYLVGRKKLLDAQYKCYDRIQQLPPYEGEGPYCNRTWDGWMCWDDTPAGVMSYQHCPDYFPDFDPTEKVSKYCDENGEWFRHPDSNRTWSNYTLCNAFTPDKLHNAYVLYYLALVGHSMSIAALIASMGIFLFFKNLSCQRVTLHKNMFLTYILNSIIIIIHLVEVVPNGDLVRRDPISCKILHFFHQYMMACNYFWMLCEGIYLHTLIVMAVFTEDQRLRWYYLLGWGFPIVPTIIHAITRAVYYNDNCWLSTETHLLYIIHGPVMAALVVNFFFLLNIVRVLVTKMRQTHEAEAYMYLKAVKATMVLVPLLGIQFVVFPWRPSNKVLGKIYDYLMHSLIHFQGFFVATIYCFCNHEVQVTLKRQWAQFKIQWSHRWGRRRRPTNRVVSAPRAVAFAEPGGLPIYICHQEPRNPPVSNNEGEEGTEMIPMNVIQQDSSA
The series can be described thus: ASSAY (VIII) binding to the rat calcitonin receptor. To be noted: Table 7, read-out: rCTR bind IC50. A digest of the protocol: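 Rat calcitonin receptor is expressed transiently in BHK tk′ts 13 cells cultured in DMEM with 10% FBS. Roughly two days (approximately 48 hours) post-transfection, cells are harvested for membrane preparation.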

Series [1] is described as follows: ASSAY (IV) determination of solubility. Type of series: physicochemical. A digest of the protocol: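 Dissolve polypeptide in water ([…] stock); combine 1:1 with each 100 mM buffer (glycylglycine pH 3.0/4.0/5.0; bistrispropane pH 6.0/6.5/7.0/7.5/8.0); hold 18 hours at room temperature; centrifuge; quantify polypeptide by UPLC.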
The target of series [2] is T2, human amylin receptor (membranes from Amylin 3(a)/CRE-luc cells) (Homo sapiens, UniProt O60896+P30988).
T2 construct: expressed in transfected cells
T2 sequence (P30988 25-474): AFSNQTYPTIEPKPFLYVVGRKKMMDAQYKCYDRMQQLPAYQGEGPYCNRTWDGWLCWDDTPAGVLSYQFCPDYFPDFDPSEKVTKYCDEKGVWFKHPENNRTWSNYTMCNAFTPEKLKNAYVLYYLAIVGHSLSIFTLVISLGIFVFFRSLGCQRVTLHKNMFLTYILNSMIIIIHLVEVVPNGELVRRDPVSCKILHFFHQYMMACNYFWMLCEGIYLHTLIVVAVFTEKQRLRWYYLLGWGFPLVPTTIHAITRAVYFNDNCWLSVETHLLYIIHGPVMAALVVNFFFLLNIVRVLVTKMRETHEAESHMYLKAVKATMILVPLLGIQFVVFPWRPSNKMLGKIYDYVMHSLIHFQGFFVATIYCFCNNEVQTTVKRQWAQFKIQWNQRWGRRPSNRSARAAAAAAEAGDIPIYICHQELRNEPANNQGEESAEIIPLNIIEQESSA
T2 sequence (O60896 24-148 partner): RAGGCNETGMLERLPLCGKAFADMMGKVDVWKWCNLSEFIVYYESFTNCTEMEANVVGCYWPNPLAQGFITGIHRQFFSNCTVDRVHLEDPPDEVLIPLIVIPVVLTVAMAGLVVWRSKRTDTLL
The series is described as follows: ASSAY (V) binding to the human amylin receptor (SPA, 125I-rat amylin).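 Note: competition binding of cell membranes (35 ng/µL) mixed with SPA beads in 384-well plates at 40 µL total volume, read by scintillation counting.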

Setting [3] is: bistrispropane buffer, pH 6.5, read-out: Solubility pH 6.5 Concentration.
The mark [4] stands for this setting: bistrispropane buffer, pH 7.5, read-out: Solubility pH 7.5 Concentration.
Setting [5] is: bistrispropane buffer, pH 6.0, read-out: Solubility pH 6.0 Concentration.
[6] abbreviates: bistrispropane buffer, pH 7.0, read-out: Solubility pH 7.0 Concentration.
Where [7] appears, read: bistrispropane buffer, pH 8.0, read-out: Solubility pH 8.0 Concentration.
[8] abbreviates: glycylglycine buffer, pH 3.0, read-out: Solubility pH 3.0 Concentration.
[9] abbreviates: glycylglycine buffer, pH 4.0, read-out: Solubility pH 4.0 Concentration.
The mark [10] stands for this setting: glycylglycine buffer, pH 5.0, read-out: Solubility pH 5.0 Concentration.
[11] abbreviates: Table 5, selectivity, hCTR bind IC50 / hAmylin-R bind IC50.
Setting [12] is: Table 5a, selectivity, hCTR bind IC50 / hAmylin-R bind IC50.
Where [13] appears, read: Table 5b, selectivity, hCTR bind IC50 / hAmylin-R bind IC50.
Setting [14] is: Table 5c, selectivity, hCTR bind IC50 / hAmylin-R bind IC50.
The mark [15] stands for this setting: Table 7, human binding selectivity, included for comparison.
The mark [16] stands for this setting: Table 7a (preferred compounds), human binding selectivity, included for comparison.
Setting [17] is: ratio of human calcitonin receptor binding IC50 to human amylin receptor binding IC50.

Take `CC[C@H](C)[C@H](NC(=O)[C@H](C)NC(=O)CNC(=O)[C@H](Cc1ccccc1)NC(=O)[C@H](CC(N)=O)NC(=O)[C@@H]1CCCN1C(=O)[C@H](CO)NC(=O)[C@H](CO)NC(=O)[C@H](Cc1c[nH]cn1)NC(=O)[C@H](CCCNC(=N)N)NC(=O)[C@H](CC(C)C)NC(=O)[C@H](Cc1ccccc1)NC(=O)[C@H](C)NC(=O)[C@H](C)NC(=O)[C@H](CC(C)C)NC(=O)[C@H](CCCNC(=N)N)NC(=O)[C@H](CCC(N)=O)NC(=O)[C@@H](NC(=O)[C@H](C)NC(=O)[C@@H]1CSSC[C@H](NC(=O)[C@H](CCCNC(=N)N)NC(=O)CNC(=O)CC[C@H](NC(=O)CCCCCCCCCCCCCCCCCCC(=O)O)C(=O)O)C(=O)N[C@@H](CC(N)=O)C(=O)N[C@@H]([C@@H](C)O)C(=O)N[C@@H](C)C(=O)N[C@@H]([C@@H](C)O)C(=O)N1)[C@@H](C)O)C(=O)N1CCC[C@H]1C(=O)N[C@@H](CO)C(=O)N[C@@H](CO)C(=O)N[C@H](C(=O)N[C@@H](CC(N)=O)C(=O)N[C@H](C(=O)NCC(=O)N[C@@H](Cc1c[nH]cn1)C(=O)N[C@@H](CC(N)=O)C(=O)N[C@H](C(=O)N[C@@H](Cc1ccc(O)cc1)C(N)=O)[C@@H](C)O)C(C)C)[C@@H](C)O` [Example 101] ({C20 diacid-γGlu}-GRCNTATCATQRLAAFLRHSSPNFGAIPSSTNVGHNTY-NH2; disulfide 3-8): the IC50 was determined as 492 nM at rat calcitonin receptor and 0.426 nM in series [2] (Table 4, read-out: hAmylin-R bind IC50). Also, the solubility at 18 h in series [1] (setting [3]) was at least 200 µM; in series [1] (setting [4]) it was 69 µM (≈ 309 µg/mL); in series [1] (setting [5]) it was at least 200 µM; in series [1] (setting [6]), 182 µM (≈ 814 µg/mL); in series [1] (setting [7]), 83 µM (≈ 371 µg/mL); in series [1] (setting [8]) it was at least 200 µM. For the same compound, the solubility at 18 h in series [1] (setting [9]) and in series [1] (setting [10]) was at least 200 µM in each case. Moreover, the “Ratio hCT/hAmylin binding” value in series [2] (setting [11]), in series [2] (setting [12]), in series [2] (setting [13]), in series [2] (setting [14]), in series [2] (setting [15]) and in series [2] (setting [16]) was 68.6 each time. In addition, the “Ratio hCT/hAmylin binding” value in series [2] (setting [17]) was 68.6.
Consider `CC[C@H](C)[C@H](NC(=O)[C@H](C)NC(=O)CNC(=O)[C@H](Cc1ccccc1)NC(=O)[C@H](CC(N)=O)NC(=O)[C@@H]1CCCN1C(=O)[C@H](CO)NC(=O)[C@H](CO)NC(=O)[C@H](Cc1c[nH]cn1)NC(=O)[C@H](CCCNC(=N)N)NC(=O)[C@H](CC(C)C)NC(=O)[C@H](Cc1ccccc1)NC(=O)[C@H](Cc1c[nH]cn1)NC(=O)[C@H](C)NC(=O)[C@H](CC(C)C)NC(=O)[C@H](CCCNC(=N)N)NC(=O)[C@H](CCC(N)=O)NC(=O)[C@@H](NC(=O)[C@H](C)NC(=O)[C@@H]1CSSC[C@H](NC(=O)[C@H](CCCNC(=N)N)NC(=O)CNC(=O)CC[C@H](NC(=O)CCCCCCCCCCCCCCCCCCC(=O)O)C(=O)O)C(=O)N[C@@H](CC(N)=O)C(=O)N[C@@H]([C@@H](C)O)C(=O)N[C@@H](C)C(=O)N[C@@H]([C@@H](C)O)C(=O)N1)[C@@H](C)O)C(=O)N1CCC[C@H]1C(=O)N[C@@H](CO)C(=O)N[C@@H](CO)C(=O)N[C@H](C(=O)N[C@@H](CC(N)=O)C(=O)N[C@H](C(=O)NCC(=O)N1CCC[C@H]1C(=O)N[C@@H](CC(N)=O)C(=O)N[C@H](C(=O)N[C@@H](Cc1ccc(O)cc1)C(N)=O)[C@@H](C)O)C(C)C)[C@@H](C)O` [Example 102] ({C20 diacid-γGlu}-GRCNTATCATQRLAHFLRHSSPNFGAIPSSTNVGPNTY-NH2; disulfide 3-8 (inferred)), for which the IC50 on rat calcitonin receptor is 65.9 nM. For the same compound, the solubility at 18 h was at least 200 µM in series [1] (setting [3]); 88 µM (≈ 396 µg/mL) in series [1] (setting [4]); at least 200 µM in series [1] (setting [5]); 154 µM (≈ 693 µg/mL) in series [1] (setting [6]); 113 µM (≈ 508 µg/mL) in series [1] (setting [7]); at least 200 µM in series [1] (setting [8]). The solubility at 18 h in series [1] (setting [9]) amounted to 197 µM (≈ 886 µg/mL); in series [1] (setting [10]) it was 195 µM (≈ 877 µg/mL). The “Ratio hCT/hAmylin binding” value in series [2] (setting [11]), in series [2] (setting [12]), in series [2] (setting [13]), in series [2] (setting [14]), in series [2] (setting [15]) and in series [2] (setting [16]) was 36.2 in each case. For the same compound, the “Ratio hCT/hAmylin binding” value in series [2] (setting [17]) came out at 36.2.
Turning to `CC[C@H](C)[C@H](NC(=O)[C@H](C)NC(=O)CNC(=O)[C@H](Cc1ccccc1)NC(=O)[C@H](CC(N)=O)NC(=O)[C@@H]1CCCN1C(=O)[C@H](CO)NC(=O)[C@H](CO)NC(=O)[C@H](Cc1c[nH]cn1)NC(=O)[C@H](CCCNC(=N)N)NC(=O)[C@H](CC(C)C)NC(=O)[C@H](Cc1ccccc1)NC(=O)[C@H](CC(N)=O)NC(=O)[C@H](C)NC(=O)[C@H](CC(C)C)NC(=O)[C@H](CCCNC(=N)N)NC(=O)[C@H](CCC(N)=O)NC(=O)[C@@H](NC(=O)[C@H](C)NC(=O)[C@@H]1CSSC[C@H](NC(=O)[C@@H](N)CCCCNC(=O)CC[C@H](NC(=O)CCCCCCCCCCCCC(=O)O)C(=O)O)C(=O)N[C@@H](CC(N)=O)C(=O)N[C@@H]([C@@H](C)O)C(=O)N[C@@H](C)C(=O)N[C@@H]([C@@H](C)O)C(=O)N1)[C@@H](C)O)C(=O)N1CCC[C@H]1C(=O)N[C@@H](CO)C(=O)N[C@@H](CO)C(=O)N[C@H](C(=O)N[C@@H](CC(N)=O)C(=O)N[C@H](C(=O)NCC(=O)N[C@@H](Cc1c[nH]cn1)C(=O)N[C@@H](CC(N)=O)C(=O)N[C@H](C(=O)N[C@@H](Cc1ccc(O)cc1)C(N)=O)[C@@H](C)O)C(C)C)[C@@H](C)O` [Example 112], the IC50 on rat calcitonin receptor was determined as 707 nM. In addition, the solubility at 18 h in series [1] (setting [3]), in series [1] (setting [4]), in series [1] (setting [5]), in series [1] (setting [6]), in series [1] (setting [7]) and in series [1] (setting [8]) was at least 200 µM throughout. For the same compound, the solubility at 18 h in series [1] (setting [9]) and in series [1] (setting [10]) was at least 200 µM each time. Besides, the “Ratio hCT/hAmylin binding” value in series [2] (setting [11]), in series [2] (setting [12]), in series [2] (setting [13]), in series [2] (setting [14]), in series [2] (setting [15]) and in series [2] (setting [16]) was 23.5 each time. For the same compound, the “Ratio hCT/hAmylin binding” value in series [2] (setting [17]) is 23.5.
